Data taken from publication PMC7822874, “Chemoprotective antimalarials identified through quantitative high-throughput screening of Plasmodium blood and liver stage parasites” (Scientific Reports, 2021).

System: Plasmodium falciparum Dd2 asexual blood stage parasites
Test: microbe, parasite or virus in culture
Parameters: species or system Plasmodium falciparum Dd2 in human erythrocytes; single determination (one 11-point concentration-response curve)
Details: Plasmodium falciparum, DD2, Erythrocyte, 72 h

Structure (SMILES) | AC50 [µM]
Cc1cccc(OC(C)C(=O)NCC2(N(C)C)CCCCC2)c1C (stereo not drawn) [NCGC00118727-01] | 8.41

Same assay, conditions: Plasmodium falciparum, DD2, Erythrocyte, 72 h; read-out: AC50

Structure (SMILES) | AC50 [µM]
CCOc1ccc(NC(=O)CCc2c(C)nc3cc(-c4ccc(Cl)cc4)nn3c2C)cc1 [NCGC00110024-01] | 6.68
COc1ccc(CCNC(=O)CCc2c(C)nc3c(c(C)nn3-c3ccc(C)c(C)c3)c2C)cc1OC [NCGC00110173-01] | 0.668
COc1ccc(C)cc1-n1c(-c2ccc(Cl)cc2)cc2c1CC(C)(C)CC2=O [NCGC00110344-01] | 2.99
CCn1c(=O)c2cc(C(=O)N(CC(C)C)CC(C)C)sc2c2ccccc21 [NCGC00110427-01] | 10.6
Cc1ccc2nc(Cl)c3cc(C(=O)NCCCN4CCC(C)CC4)sc3c2c1 [NCGC00110841-01] | 6.68
CCOc1ccc(-c2cc3nc(C4CCN(C(=O)OC(C)(C)C)CC4)c(C(=O)Nc4ccc(C(=O)OC)cc4)cn3n2)cc1 [NCGC00110849-01] | 4.73
COCCNc1cc(N2CCN(C3CCCCC3)CC2)c2noc3c2c1C(=O)c1ccccc1-3 [NCGC00111067-01] | 15
CCCCCNc1nc2c(-c3ccccc3)nnn2c2ccccc12 [NCGC00111529-01] | 11.9
CCOC(=O)N1CCc2c(sc3c2c(=O)n(-c2ccccc2C(F)(F)F)c(=O)n3Cc2ccccc2C)C1 [NCGC00111905-01] | 13.3
CCOC(=O)N1CCc2c(sc3c2c(=O)n(Cc2ccccc2)c(=O)n3Cc2ccccc2Cl)C1 [NCGC00111943-01] | 4.73
COc1ccc(CCNC(=O)Cn2c(-c3cccs3)cc3cc(F)ccc32)cc1OC [NCGC00111974-01] | 4.73
CCOC(=O)N1CCc2c(sc3c2c(=O)n(CCc2ccccc2)c(=O)n3Cc2c(F)cccc2Cl)C1 [NCGC00111977-01] | 2.66
CSc1cccc(Nc2nc3c([S+](=O)([O-])c4ccccc4)nnn3c3ccc(Cl)cc23)c1 [NCGC00112212-01] | 1.88
CC1CCN(c2nc3c([S+](=O)([O-])c4ccccc4)nnn3c3ccc(Cl)cc23)CC1 [NCGC00112222-01] | 2.66
CC(=O)c1ccc(N2CCN(c3nc4c([S+](=O)([O-])c5ccccc5)nnn4c4ccc(Cl)cc34)CC2)cc1 [NCGC00112340-01] | 3.35
COc1cc2nc(NCc3ccccc3Cl)n3nc(-c4cccnc4)nc3c2cc1OC [NCGC00112532-01] | 2.11
COc1ccccc1NC(=O)CSc1nc2c(oc3ccccc32)c(=O)n1-c1ccc(C)cc1 [NCGC00112704-01] | 15
Cc1cccc(N2CCN(C(=O)CCc3nnc4n(CC(C)C)c(=O)c5ccccc5n34)CC2)c1C [NCGC00112784-01] | 3.35
COc1cc2nc(NCc3ccccc3)n3nc(-c4ccccc4)nc3c2cc1OC [NCGC00112829-01] | 0.422
COc1ccc(CCNc2nc3cc(OC)c(OC)cc3c3nc(-c4ccccc4)nn23)cc1OC [NCGC00112847-01] | 2.37
COc1cc2nc(NCCC(C)C)n3nc(-c4ccccc4)nc3c2cc1OC [NCGC00112851-01] | 0.422
COc1cc2nc(NCc3ccc(C)cc3)n3nc(-c4ccccc4)nc3c2cc1OC [NCGC00112855-01] | 0.266
CCOCCCNc1nc2cc(OC)c(OC)cc2c2nc(-c3ccccc3)nn12 [NCGC00112857-01] | 0.211
COc1cc2nc(NCCc3cccc(C)c3)n3nc(-c4ccccc4)nc3c2cc1OC [NCGC00112859-01] | 0.841
CCOc1ccc(-c2cn3c(n2)sc2cc(C(=O)NC(C)C45CC6CC(CC(C6)C4)C5)ccc23)cc1 (stereo not drawn) [NCGC00113230-01] | 5.96
CCC[S+](=O)([O-])c1nc([S+](=O)([O-])c2ccc(C)cc2)c(NCCCOC(C)C)s1 [NCGC00113582-01] | 2.11

Structure (SMILES) | AC50 [µM]
Cc1ccc(C(=O)N2CCC(c3c[nH]c4ccccc34)(c3c[nH]c4ccccc34)CC2)cc1 [NCGC00113768-01] | 8.41
COc1ccc(-c2nc(Cn3c(SCc4ccccc4F)nc4ccncc43)c(C)o2)cc1OC [NCGC00113862-01] | 8.41
CCCCN(CCCC)CC(O)Cn1cc(/C=C/C(=O)c2ccccc2)c2ccccc21 (stereo not drawn) [NCGC00114887-01] | 1.68
CCCN(CCC)CC(O)Cn1cc(/C=C/C(=O)c2ccc(C)cc2)c2ccccc21 (stereo not drawn) [NCGC00114909-01] | 4.73
Cc1oc2ccc(O)c(CN3CCCC(C)C3)c2c1C(=O)Nc1ccccc1 (stereo not drawn) [NCGC00115528-01] | 2.11
COc1ccc(NC(=O)c2c(C)oc3ccc(O)c(CN4CCCC(C)C4)c23)cc1Cl (stereo not drawn) [NCGC00115530-01] | 0.944
COc1ccc(NC(=O)c2c(C)oc3ccc(O)c(CN4CCN(Cc5ccccc5)CC4)c23)cc1 [NCGC00115648-01] | 2.66
Cc1oc2ccc(O)c(CN3CCN(Cc4ccccc4)CC3)c2c1C(=O)Nc1cccc(Cl)c1C [NCGC00115656-01] | 0.596
Cc1ccc(NC(=O)c2c(C)oc3ccc(O)c(CN4CCCCCC4)c23)c(C)c1 [NCGC00115658-01] | 4.73
COc1ccc(NC(=O)c2c(C)oc3ccc(O)c(CN4CCCCCC4)c23)cc1Cl [NCGC00115677-01] | 1.88
Cc1ccc(NC(=O)c2c(C)oc3ccc(O)c(CN4CCCCCC4)c23)cc1 [NCGC00115683-01] | 2.11
Cc1oc2ccc(O)c(CN3CCCCCC3)c2c1C(=O)Nc1cccc(Cl)c1C [NCGC00115685-01] | 0.841
Cc1ccc(NC(=O)c2c(C)oc3ccc(O)c(CN(C)Cc4ccccc4)c23)c(C)c1 [NCGC00115687-01] | 5.96
Cc1oc2ccc(O)c(CN(C)Cc3ccccc3)c2c1C(=O)Nc1ccccc1 [NCGC00115689-01] | 2.37
Cc1oc2ccc(O)c(CN(C)Cc3ccccc3)c2c1C(=O)Nc1cccc(C(F)(F)F)c1 [NCGC00115691-01] | 2.11
Cc1ccccc1NC(=O)c1c(C)oc2ccc(O)c(CN(C)Cc3ccccc3)c12 [NCGC00115709-01] | 2.37
CCN(Cc1ccccc1)Cc1c(O)ccc2oc(C)c(C(=O)Nc3ccccc3C)c12 [NCGC00115715-01] | 4.73
O=C(Nc1sc2c(c1C(=O)NCc1ccco1)CCCC2)c1cc(=O)c2ccccc2o1 [NCGC00115806-01] | 10.6
CCOc1ccc(-c2nonc2NC(=O)c2ccc(C)cc2)cc1OCC [NCGC00116031-01] | 1.68
CCCOc1ccc(-c2nonc2NC(=O)c2cc(OC)c(OC)c(OC)c2)cc1OCCC [NCGC00116043-01] | 5.96
O=C(c1cccc(Cl)c1)N1CCC(c2nc(O)c3nnn(Cc4ccc(F)cc4F)c3n2)CC1 [NCGC00116055-01] | 5.96
CC(C)(C)c1ccc(C(=O)N2CCCC(c3nc(O)c4nnn(Cc5cccc(F)c5)c4n3)C2)cc1 (stereo not drawn) [NCGC00116087-01] | 16.8
Cc1cccc(Cn2nnc3c(O)nc(C4CCCN(C(=O)c5ccc(C(C)(C)C)cc5)C4)nc32)c1 (stereo not drawn) [NCGC00116091-01] | 2.66
Cc1ccc(CN2COc3ccc4c(-c5ccccc5)cc(=O)oc4c3C2)cc1 [NCGC00116312-01] | 0.841
Cc1cc2c(c3oc(=O)c4ccccc4c13)CN(Cc1ccc(F)cc1)CO2 [NCGC00116338-01] | 2.66
O=c1cc(-c2ccccc2)c2ccc3c(c2o1)CN(Cc1ccccc1)CO3 [NCGC00116340-01] | 2.66

Structure (SMILES) | AC50 [µM]
O=c1cc(-c2ccccc2)c2ccc3c(c2o1)CN(Cc1cccc(Cl)c1)CO3 [NCGC00116370-01] | 0.841
COc1ccc(N2CCN(c3oc(/C=C/c4cc(OC)c(OC)c(OC)c4)nc3C#N)CC2)cc1 [NCGC00116464-01] | 2.66
Cc1ccc([S+](=O)([O-])c2nc([S+](=O)([O-])c3ccccc3)sc2NCCCOC(C)C)cc1 [NCGC00116818-01] | 0.596
CC(C)OCCCNc1sc([S+](=O)([O-])c2ccccc2)nc1[S+](=O)([O-])c1ccc(Cl)cc1 [NCGC00116822-01] | 0.266
Cc1ccccc1OCCSc1nc2ccc(NC(=O)c3ccccc3)cc2s1 [NCGC00118500-01] | 15
Cc1ccccc1OCCSc1nc2ccc(NC(=O)c3cccs3)cc2s1 [NCGC00118502-01] | 5.31
COc1cc(C)ccc1OCCSc1nc2ccc(NC(=O)c3ccc(F)cc3)cc2s1 [NCGC00118562-01] | 10.6
COc1cc(C)ccc1OCCSc1nc2ccc(NC(=O)c3cccs3)cc2s1 [NCGC00118564-01] | 13.3
COc1ccc(OCC(=O)NCC2(N3CCN(C)CC3)CCCCC2)cc1 [NCGC00118575-01] | 1.88
Cc1cccc(OCC(=O)NCC2(N3CCN(C)CC3)CCCCC2)c1C [NCGC00118605-01] | 6.68
CN(C(=O)CSc1nc2ccc(NC(=O)CCc3ccccc3)cc2s1)c1ccccc1 [NCGC00118644-01] | 13.3
Cc1ccc(OCCSc2nc3ccc(NC(=O)c4cccs4)cc3s2)cc1 [NCGC00118830-01] | 2.99
Cc1cccc(OCCSc2nc3ccc(NC(=O)c4cccs4)cc3s2)c1 [NCGC00118842-01] | 9.44
Cc1ccc(N(Cc2cccs2)C(=O)C(C)Oc2ccc(Cl)c(C)c2)cc1 (stereo not drawn) [NCGC00119071-01] | 7.5
CCCC(O)c1nc2ccccc2n1CCCCOc1ccc(OC)cc1 (stereo not drawn) [NCGC00119455-01] | 15
Cc1ccc(-c2noc(-c3ccccc3NC(=O)C3CC(=O)N(c4ccc(C)cc4)C3)n2)cc1 (stereo not drawn) [NCGC00119552-01] | 4.22
CCc1c(C)c2ccc(O)c(CN3CCN(c4ccccc4)CC3)c2oc1=O [NCGC00119657-01] | 2.37
COc1ccccc1NC(=O)N1CC(=O)Nc2sc3c(c2C1c1ccccc1)CCCC3 (stereo not drawn) [NCGC00120109-01] | 15
CCOc1ccc(NC(=O)c2cnn3c2NC(c2cccc(OC)c2)=CC3c2ccccc2)cc1 (stereo not drawn) [NCGC00121753-01] | 4.73
COc1cccc(-c2cc(C(=O)Nc3cc(Cl)ccc3O)on2)c1 [NCGC00121773-01] | 4.73
COc1ccc(-c2cn3c(n2)sc2cc(C(=O)NCCCN4CCCCC4)ccc23)cc1 [NCGC00121823-01] | 4.73
CCCN1CCN(CCCNC(=O)c2ccc3c(c2)sc2nc(-c4ccc(OC)cc4)cn23)CC1 [NCGC00121829-01] | 4.73
COc1ccc2c(CNCc3ccccc3OC)c(C(=O)O)n(Cc3ccc(F)cc3Cl)c2c1 [NCGC00122363-01] | 15
COc1ccc(-c2nc3c(c(SCc4ccc(Br)cc4)n2)Cc2c(CO)cnc(C)c2O3)cc1 [NCGC00122580-01] | 0.0668
CCCCn1cc([S+](=O)([O-])c2ccc(Cl)cc2)c(=O)c2cc(F)c(N3CCCCC3)cc21 [NCGC00123723-01] | 15
